According to article PMC11579512, “Deoxybouvardin-glucoside induces apoptosis in non-small cell lung cancer cells by targeting EGFR/MET and AKT signaling pathway” (EXCLI Journal, 2024):

Assays:
Format in all cases: cell-based, human
PARP = experiment: Immunoblot PARP in HCC827 and HCC827GR cells; conditions: for PARP protein Ratio: DBG 0 nM = 1.00
Procedure: (§1) HaCaT cells were grown in DMEM, whereas HCC827 and HCC827GR cells were grown in RPMI 1640. All culture media were supplemented with FBS (10 %) and P/S (1 %), and the cells were grown at 37 °C in 5 % CO2.
(§2) Cells were lysed in RIPA buffer, and protein concentration was determined using a Bio-Rad DC Protein Assay kit (Bio-Rad, Hercules, CA, USA). Protein samples from the cell lysates were resolved by sodium dodecyl sulfate-polyacrylamide gel electrophoresis and then transferred onto polyvinylidene fluoride membranes. The membranes were blocked with 3 % or 5 % skim milk and then incubated at 4 °C overnight with the indicated primary antibodies, followed by the corresponding horseradish peroxidase-conjugated secondary antibodies at RT for 2 h. Protein bands were visualized using western blotting luminol reagent solution and ImageQuant LAS 500 (GE Healthcare, Uppsala, Sweden). The density of the bands was quantified using ImageJ software (NIH, Bethesda, MD, USA).

p-MET = experiment: Immunoblot p-MET with NAC pretreatment, HCC827 and HCC827GR cells; conditions: for p-MET protein Ratio: control = 1.00
Procedure: as §1, §2

Bcl-2 = experiment: Immunoblot Bcl-2 in HCC827 and HCC827GR cells; conditions: for BCl-2 protein Ratio: DBG 0 nM = 1.00
Procedure: as §1, §2

p-AKT = experiment: Immunoblot p-AKT with NAC pretreatment, HCC827 and HCC827GR cells; conditions: for p-AKT protein Ratio: control = 1.00
Procedure: as §1, §2

p-EGFR (Y1068) = experiment: Western blot p-EGFR (Y1068) in HCC827 and HCC827GR cells; conditions: DBG 3, 6, 12 nM, 48 h
Procedure: as §1, §2

caspase-3 = experiment: Immunoblot caspase-3 with NAC pretreatment, HCC827 and HCC827GR cells; conditions: for caspase3 protein Ratio: control = 1.00
Procedure: as §1, §2

Bad = experiment: Immunoblot Bad in HCC827 and HCC827GR cells
Procedure: as §1, §2

HCC827GR cells = experiment: Soft agar anchorage-independent growth, HCC827GR; conditions: 2 weeks
Procedure: The anchorage-independent cell growth assay was performed in 6-well plates with dual agar layers containing 0.6 % agar (lower layer) and 0.3 % agar (upper layer) supplemented with BME, 2 mM L-glutamine, 5 μg/ml gentamicin, and 10 % FBS. After 2 weeks of incubation, the number of colonies was assessed using a microscope (Leica, Wetzlar, Germany), and the mean colony area was analyzed using i-Solution ^TM software (Vancouver, BC, Canada).

[1] = NAC 4 mM pretreatment, DBG 48 h

COc1ccc(C[C@H]2C(=O)N[C@@H](C)C(=O)N(C)[C@H]3Cc4ccc(cc4)Oc4cc(ccc4O[C@@H]4O[C@H](CO)[C@@H](O)[C@H](O)[C@H]4O)C[C@@H](C(=O)N[C@H](C)C(=O)N[C@@H](C)C(=O)N2C)N(C)C3=O)cc1 [DBG, deoxybouvardin glucoside]
PARP protein/actin (PARP; HCC827, DBG 3 nM, DBG 0 nM 0.88): 0.17 | PARP protein Ratio (PARP; HCC827, DBG 3 nM): 0.20 | PARP protein/actin (PARP; HCC827, DBG 6 nM, DBG 0 nM 0.88): 0.14 | PARP protein Ratio (PARP; HCC827, DBG 6 nM): 0.16 | PARP protein/actin (PARP; HCC827, DBG 12 nM, DBG 0 nM 0.88): 0.15 | PARP protein Ratio (PARP; HCC827, DBG 12 nM): 0.17 | PARP protein/actin (PARP; HCC827GR, DBG 3 nM, DBG 0 nM 0.78): 0.46 | PARP protein Ratio (PARP; HCC827GR, DBG 3 nM): 0.59 | PARP protein/actin (PARP; HCC827GR, DBG 6 nM, DBG 0 nM 0.78): 0.23 | PARP protein Ratio (PARP; HCC827GR, DBG 6 nM): 0.29 | PARP protein/actin (PARP; HCC827GR, DBG 12 nM, DBG 0 nM 0.78): 0.12 | PARP protein Ratio (PARP; HCC827GR, DBG 12 nM): 0.16 | level of whole PARP (PARP; HCC827 and HCC827GR, DBG): decreased | p-MET protein/actin (p-MET; HCC827, DBG 12 nM, control 1.17): 0.27 | p-MET protein Ratio (p-MET; HCC827, DBG 12 nM): 0.23 | p-MET protein/actin (p-MET; HCC827, NAC 4 mM + DBG 12 nM, control 1.17): 0.40 | p-MET protein Ratio (p-MET; HCC827, NAC 4 mM + DBG 12 nM): 0.34 | p-MET protein/actin (p-MET; HCC827GR, DBG 12 nM, control 1.14): 0.44 | p-MET protein Ratio (p-MET; HCC827GR, DBG 12 nM): 0.39 | p-MET protein/actin (p-MET; HCC827GR, NAC 4 mM + DBG 12 nM, control 1.14): 0.21 | p-MET protein Ratio (p-MET; HCC827GR, NAC 4 mM + DBG 12 nM): 0.18 | DBG-decreased phosphorylation of MET with NAC (p-MET; [1]): did not change | BCl-2 protein/actin (Bcl-2; HCC827, DBG 3 nM, DBG 0 nM 0.55): 0.30 | BCl-2 protein Ratio (Bcl-2; HCC827, DBG 3 nM): 0.55 | BCl-2 protein/actin (Bcl-2; HCC827, DBG 6 nM, DBG 0 nM 0.55): 0.21 | BCl-2 protein Ratio (Bcl-2; HCC827, DBG 6 nM): 0.39 | BCl-2 protein/actin (Bcl-2; HCC827, DBG 12 nM, DBG 0 nM 0.55): 0.19 | BCl-2 protein Ratio (Bcl-2; HCC827, DBG 12 nM): 0.36 | BCl-2 protein/actin (Bcl-2; HCC827GR, DBG 3 nM, DBG 0 nM 0.66): 0.59 | BCl-2 protein Ratio (Bcl-2; HCC827GR, DBG 3 nM): 0.89 | BCl-2 protein/actin (Bcl-2; HCC827GR, DBG 6 nM, DBG 0 nM 0.66): 0.47 | BCl-2 protein Ratio (Bcl-2; HCC827GR, DBG 6 nM): 0.70 | BCl-2 protein/actin (Bcl-2; HCC827GR, DBG 12 nM, DBG 0 nM 0.66): 0.19 | BCl-2 protein Ratio (Bcl-2; HCC827GR, DBG 12 nM): 0.29 | level of Bcl-2 (Bcl-2; NSCLC cells, DBG): downregulated | p-AKT protein/actin (p-AKT; HCC827, DBG 12 nM, control 1.00): 0.39 | p-AKT protein Ratio (p-AKT; HCC827, DBG 12 nM): 0.39 | p-AKT protein/actin (p-AKT; HCC827, NAC 4 mM + DBG 12 nM, control 1.00): 0.42 | p-AKT protein Ratio (p-AKT; HCC827, NAC 4 mM + DBG 12 nM): 0.42 | p-AKT protein/actin (p-AKT; HCC827GR, DBG 12 nM, control 1.04): 0.30 | p-AKT protein Ratio (p-AKT; HCC827GR, DBG 12 nM): 0.29 | p-AKT protein/actin (p-AKT; HCC827GR, NAC 4 mM + DBG 12 nM, control 1.04): 0.17 | p-AKT protein Ratio (p-AKT; HCC827GR, NAC 4 mM + DBG 12 nM): 0.16 | DBG-decreased phosphorylation of AKT with NAC (p-AKT; [1]): did not change | phosphorylation level of EGFR (p-EGFR (Y1068)): decreased | caspase3 protein/actin (caspase-3; HCC827, DBG 12 nM, control 0.39): 0.07 | caspase3 protein Ratio (caspase-3; HCC827, DBG 12 nM): 0.18 | caspase3 protein/actin (caspase-3; HCC827, NAC 4 mM + DBG 12 nM, control 0.39): 0.60 | caspase3 protein Ratio (caspase-3; HCC827, NAC 4 mM + DBG 12 nM): 1.53 | caspase3 protein/actin (caspase-3; HCC827GR, DBG 12 nM, control 0.59): 0.24 | caspase3 protein Ratio (caspase-3; HCC827GR, DBG 12 nM): 0.41 | caspase3 protein/actin (caspase-3; HCC827GR, NAC 4 mM + DBG 12 nM, control 0.59): 0.45 | caspase3 protein Ratio (caspase-3; HCC827GR, NAC 4 mM + DBG 12 nM): 0.77 | Bad protein/actin (Bad; HCC827, DBG 3 nM, DBG 0 nM 0.16): 0.25 | Bad protein Ratio (Bad; HCC827, DBG 3 nM, relative to DBG 12 nM = 1.00, DBG 0 nM 0.19): 0.31 | Bad protein/actin (Bad; HCC827, DBG 6 nM, DBG 0 nM 0.16): 0.69 | Bad protein Ratio (Bad; HCC827, DBG 6 nM, relative to DBG 12 nM = 1.00, DBG 0 nM 0.19): 0.84 | Bad protein Ratio (Bad; HCC827, DBG 12 nM (reference of the ratio, 1.00), DBG 0 nM 0.19): 1.00 | Bad protein/actin (Bad; HCC827, DBG 12 nM, DBG 0 nM 0.16): 0.82 | Bad protein/actin (Bad; HCC827GR, DBG 3 nM, DBG 0 nM 0.28): 0.22 | Bad protein Ratio (Bad; HCC827GR, DBG 3 nM, relative to DBG 12 nM = 1.00, DBG 0 nM 0.49): 0.39 | Bad protein/actin (Bad; HCC827GR, DBG 6 nM, DBG 0 nM 0.28): 0.59 | Bad protein Ratio (Bad; HCC827GR, DBG 6 nM, relative to DBG 12 nM = 1.00, DBG 0 nM 0.49): 1.03 | Bad protein Ratio (Bad; HCC827GR, DBG 12 nM (reference of the ratio, 1.00), DBG 0 nM 0.49): 1.00 | Bad protein/actin (Bad; HCC827GR, DBG 12 nM, DBG 0 nM 0.28): 0.57 | level of Bad (Bad; NSCLC cells, DBG): increased | colony number, Control % (HCC827GR cells; DBG 3 nM): 40.00% | colony size, Control % (HCC827GR cells; DBG 3 nM): 77.33% | colony number, Control % (HCC827GR cells; DBG 6 nM): 13.10% | colony size, Control % (HCC827GR cells; DBG 6 nM): 72.67% | colony number, Control % (HCC827GR cells; DBG 12 nM): 0.00% | colony size, Control % (HCC827GR cells; DBG 12 nM): 0.00%
